# How the values were obtained:
# human Gal-3 (hGal-3) = human Gal-3 (hGal-3) (Homo sapiens (Human), UniProt P17931); experiment: Competitive binding assay: binding of biotinylated hGal-3 to microplate-adsorbed asialofetuin (ASF); details: Activity on hGal-3; mean values of several measurements
# Outline: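 Compounds in DMSO dilution series competed with 300-1000 ng/mL biotinylated hGal-3 for asialofetuin adsorbed on the plate (3 h, 4° C). Streptavidin-peroxidase at 80 ng/mL (1 h, 4° C) with ABTS gave a spectrophotometric read-out, and IC50 was reported as the mean of repeat runs.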
# human Gal-1 (hGal-1) [1] = molecular target: human Gal-1 (hGal-1) (Homo sapiens, UniProt P09382); experiment: Competitive binding assay: binding of biotinylated hGal-1 to microplate-adsorbed asialofetuin (ASF); details: Activities on hGal-1; mean values of several measurements
# Sequence of human Gal-1 (hGal-1) (P09382 2-135 limits assumed): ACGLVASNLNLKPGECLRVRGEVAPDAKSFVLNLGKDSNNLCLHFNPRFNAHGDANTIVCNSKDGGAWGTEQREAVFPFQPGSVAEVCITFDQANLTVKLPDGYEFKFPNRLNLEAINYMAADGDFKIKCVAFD
# Sequence of human Gal-1 (hGal-1) (Homo sapiens, UniProt P09382) (P09382 2-135 limits assumed): as above
# Outline: (§1)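 Spectrophotometric readout (streptavidin-peroxidase, ABTS) of biotinylated galectin retained on ASF-coated wells. Biotinylated hGal-1 or hGal-3, 300-1000 ng/mL, co-incubated with test compound 3 h at 4° C, then washed. Mean IC50 from repeat runs.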
# human Gal-1 (hGal-1) [2] = experiment: as above; details: Activities on hGal-1; mean values of several measurements
# Outline: as §1
# Sequence of human Gal-3 (hGal-3) (P17931 whole entry): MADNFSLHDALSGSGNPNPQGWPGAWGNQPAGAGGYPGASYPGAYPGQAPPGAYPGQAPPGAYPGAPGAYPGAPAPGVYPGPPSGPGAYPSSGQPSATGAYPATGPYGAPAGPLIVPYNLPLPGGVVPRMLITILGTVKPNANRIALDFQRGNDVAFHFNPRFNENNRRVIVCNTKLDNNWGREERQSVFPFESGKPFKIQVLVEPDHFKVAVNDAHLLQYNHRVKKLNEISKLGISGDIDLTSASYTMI
IC50 (human Gal-3 (hGal-3)),IC50 (human Gal-1 (hGal-1) [2]),Compound,IC50 (human Gal-1 (hGal-1) [1])
130 nM,1000 nM,"CO[C@@H]1[C@@H](n2cc(-c3cc(F)c(F)c(F)c3)nn2)[C@@H](O)[C@@H](CO)O[C@@H]1C[C@H]1CN(C2CCN(C(=O)C(C)C)CC2)C(=O)O1 [Example 5.12, (S)-5-(((2R,3R,4S,5R,6R)-5-hydroxy-6-(hydroxymethyl)-3-methoxy-4-(4-(3,4,5-trifluorophenyl)-1H-1,2,3-triazol-1-yl)tetrahydro-2H-pyran-2-yl)methyl)-3-(1-isobutyrylpiperidin-4-yl)oxazolidin-2-one]",–
590 nM,4730 nM,"CO[C@@H]1[C@@H](n2cc(-c3cc(F)c(F)c(F)c3)nn2)[C@@H](O)[C@@H](CO)O[C@@H]1C[C@@H]1CN(C2CCN(C(=O)C(C)C)CC2)C(=O)O1 [Example 5.13, (R)-5-(((2R,3R,4S,5R,6R)-5-hydroxy-6-(hydroxymethyl)-3-methoxy-4-(4-(3,4,5-trifluorophenyl)-1H-1,2,3-triazol-1-yl)tetrahydro-2H-pyran-2-yl)methyl)-3-(1-isobutyrylpiperidin-4-yl)oxazolidin-2-one]",–
340 nM,6410 nM,"CO[C@@H]1[C@@H](n2cc(-c3cc(F)c(F)c(F)c3)nn2)[C@@H](O)[C@@H](CO)O[C@@H]1C[C@H]1CN(C2CCN(C(=O)OC(C)(C)C)CC2)C(=O)O1 [Example 5.14, tert-butyl 4-((S)-5-(((2R,3R,4S,5R,6R)-5-hydroxy-6-(hydroxymethyl)-3-methoxy-4-(4-(3,4,5-trifluorophenyl)-1H-1,2,3-triazol-1-yl)tetrahydro-2H-pyran-2-yl)methyl)-2-oxooxazolidin-3-yl)piperidine-1-carboxylate]",–
50 nM,210 nM,"CO[C@@H]1[C@@H](n2cc(-c3cc(F)c(F)c(F)c3)nn2)[C@@H](O)[C@@H](CO)O[C@@H]1C[C@@H]1CN(C2CCN(C(=O)OC(C)(C)C)CC2)C(=O)O1 [Example 5.15, tert-butyl 4-((R)-5-(((2R,3R,4S,5R,6R)-5-hydroxy-6-(hydroxymethyl)-3-methoxy-4-(4-(3,4,5-trifluorophenyl)-1H-1,2,3-triazol-1-yl)tetrahydro-2H-pyran-2-yl)methyl)-2-oxooxazolidin-3-yl)piperidine-1-carboxylate]",–
560 nM,6380 nM,"CO[C@@H]1[C@@H](n2cc(-c3cc(F)c(F)c(F)c3)nn2)[C@@H](O)[C@@H](CO)O[C@@H]1Cc1cc(C2CCC(F)(F)CC2)sn1 [Example 6.01, (2R,3R,4S,5R,6R)-6-((5-(4,4-difluorocyclohexyl)isothiazol-3-yl)methyl)-2-(hydroxymethyl)-5-methoxy-4-(4-(3,4,5-trifluorophenyl)-1H-1,2,3-triazol-1-yl)tetrahydro-2H-pyran-3-ol]",–
110 nM,1970 nM,"CO[C@@H]1[C@@H](n2cc(-c3cc(F)c(F)c(F)c3)nn2)[C@@H](O)[C@@H](CO)O[C@@H]1Cc1cc(C2CCN(C(=O)OC(C)(C)C)CC2)sn1 [Example 6.02, tert-butyl 4-(3-(((2R,3R,4S,5R,6R)-5-hydroxy-6-(hydroxymethyl)-3-methoxy-4-(4-(3,4,5-trifluorophenyl)-1H-1,2,3-triazol-1-yl)tetrahydro-2H-pyran-2-yl)methyl)isothiazol-5-yl)piperidine-1-carboxylate]",–
220 nM,4160 nM,"CO[C@@H]1[C@@H](n2cc(-c3cc(F)c(F)c(F)c3)nn2)[C@@H](O)[C@@H](CO)O[C@@H]1Cc1cc(C2CCNCC2)sn1 [Example 6.03, (2R,3R,4S,5R,6R)-2-(hydroxymethyl)-5-methoxy-6-((5-(piperidin-4-yl)isothiazol-3-yl)methyl)-4-(4-(3,4,5-trifluorophenyl)-1H-1,2,3-triazol-1-yl)tetrahydro-2H-pyran-3-ol]",–
180 nM,2380 nM,"CO[C@@H]1[C@@H](n2cc(-c3cc(F)c(F)c(F)c3)nn2)[C@@H](O)[C@@H](CO)O[C@@H]1Cn1cnc(C(C)(C)C)c1 [Example 6.04, (2R,3R,4S,5R,6R)-6-((4-(tert-butyl)-1H-imidazol-1-yl)methyl)-2-(hydroxymethyl)-5-methoxy-4-(4-(3,4,5-trifluorophenyl)-1H-1,2,3-triazol-1-yl)tetrahydro-2H-pyran-3-ol]",–
250 nM,8190 nM,"CO[C@@H]1[C@@H](n2cc(-c3cc(F)c(F)c(F)c3)nn2)[C@@H](O)[C@@H](CO)O[C@@H]1Cc1cn(-c2ccccc2)c(=O)o1 [Example 6.05, 5-(((2R,3R,4S,5R,6R)-5-hydroxy-6-(hydroxymethyl)-3-methoxy-4-(4-(3,4,5-trifluorophenyl)-1H-1,2,3-triazol-1-yl)tetrahydro-2H-pyran-2-yl)methyl)-3-phenyloxazol-2(3H)-one]",–
42 nM,1630 nM,"CO[C@@H]1[C@@H](n2cc(-c3ccc(C)c(F)c3F)nn2)[C@@H](O)[C@@H](CO)O[C@@H]1CN1CC(=O)N(C2CCCCC2)C1 [Example 6.06, 3-cyclohexyl-1-(((2R,3R,4S,5R,6R)-4-(4-(2,3-difluoro-4-methylphenyl)-1H-1,2,3-triazol-1-yl)-5-hydroxy-6-(hydroxymethyl)-3-methoxytetrahydro-2H-pyran-2-yl)methyl)imidazolidin-4-one]",–
150 nM,910 nM,"CO[C@@H]1[C@@H](n2cc(-c3cc(F)c(F)c(F)c3)nn2)[C@@H](O)[C@@H](CO)O[C@@H]1CN1CN(C2CCN(C(C)=O)CC2)CC1=O [Example 6.07, 1-(1-acetylpiperidin-4-yl)-3-(((2R,3R,4S,5R,6R)-5-hydroxy-6-(hydroxymethyl)-3-methoxy-4-(4-(3,4,5-trifluorophenyl)-1H-1,2,3-triazol-1-yl)tetrahydro-2H-pyran-2-yl)methyl)imidazolidin-4-one]",–
22 nM,73 nM,"CO[C@@H]1[C@@H](n2cc(-c3cc(F)c(F)c(F)c3)nn2)[C@@H](O)[C@@H](CO)O[C@@H]1CN1CC(=O)N(C2CCN(C(C)=O)CC2)C1 [Example 6.08, 3-(1-acetylpiperidin-4-yl)-1-(((2R,3R,4S,5R,6R)-5-hydroxy-6-(hydroxymethyl)-3-methoxy-4-(4-(3,4,5-trifluorophenyl)-1H-1,2,3-triazol-1-yl)tetrahydro-2H-pyran-2-yl)methyl)imidazolidin-4-one]",–
59 nM,6720 nM,"CO[C@@H]1[C@@H](n2cc(-c3cc(F)c(F)c(F)c3)nn2)[C@@H](O)[C@@H](CO)O[C@@H]1CN1CC(=O)N(C2CCCCC2)C1 [Example 6.09, 3-cyclohexyl-1-(((2R,3R,4S,5R,6R)-5-hydroxy-6-(hydroxymethyl)-3-methoxy-4-(4-(3,4,5-trifluorophenyl)-1H-1,2,3-triazol-1-yl)tetrahydro-2H-pyran-2-yl)methyl)imidazolidin-4-one]",–
37 nM,890 nM,"CO[C@@H]1[C@@H](n2cc(-c3cc(F)c(F)c(F)c3)nn2)[C@@H](O)[C@@H](CO)O[C@@H]1CN1CC(=O)N(C2CCOCC2)C1 [Example 6.10, 1-(((2R,3R,4S,5R,6R)-5-hydroxy-6-(hydroxymethyl)-3-methoxy-4-(4-(3,4,5-trifluorophenyl)-1H-1,2,3-triazol-1-yl)tetrahydro-2H-pyran-2-yl)methyl)-3-(tetrahydro-2H-pyran-4-yl)imidazolidin-4-one]",–
26 nM,92 nM,"CCOC(=O)N1CCC(N2CN(C[C@H]3O[C@H](CO)[C@H](O)[C@H](n4cc(-c5cc(F)c(F)c(F)c5)nn4)[C@H]3OC)CC2=O)CC1 [Example 6.11, ethyl 4-(3-(((2R,3R,4S,5R,6R)-5-hydroxy-6-(hydroxymethyl)-3-methoxy-4-(4-(3,4,5-trifluorophenyl)-1H-1,2,3-triazol-1-yl)tetrahydro-2H-pyran-2-yl)methyl)-5-oxoimidazolidin-1-yl)piperidine-1-carboxylate]",–
81 nM,1450 nM,"(2R,3R,4S,5R,6R)-4-(4-(2,3-difluoro-4-methylphenyl)-1H-1,2,3-triazol-1-yl)-6-((3-(1-hydroxycyclobutyl)isoxazol-5-yl)methyl)-2-(hydroxymethyl)-5-methoxytetrahydro-2H-pyran-3-ol [Example 2.57]",–
60 nM,1460 nM,"(2R,3R,4S,5R,6R)-4-(4-(4-chloro-2,3-difluorophenyl)-1H-1,2,3-triazol-1-yl)-6-((3-(1-hydroxycyclobutyl)isoxazol-5-yl)methyl)-2-(hydroxymethyl)-5-methoxytetrahydro-2H-pyran-3-ol [Example 2.58]",–

Compound,IC50 (human Gal-3 (hGal-3)),IC50 (human Gal-1 (hGal-1) [2]),IC50 (human Gal-1 (hGal-1) [1])
"CC(C)(C)OC(=O)N1CCC(c2cc(C[C@H]3O[C@H](CO)[C@H](O)[C@H](n4cc(-c5cc(F)c(F)c(F)c5)nn4)[C@H]3OCC(F)F)no2)CC1 [Example 2.25, tert-butyl 4-(3-(((2R,3R,4S,5R,6R)-3-(2,2-difluoroethoxy)-5-hydroxy-6-(hydroxymethyl)-4-(4-(3,4,5-trifluorophenyl)-1H-1,2,3-triazol-1-yl)tetrahydro-2H-pyran-2-yl)methyl)issoxazole-5-yl)piperidine-1-carboxylate]",170 nM,–,1280 nM

# From patent US12319672B2, “Alpha-D-galactopyranoside derivatives” (Idorsia Pharmaceuticals Ltd, priority 2019, dated 2025)
